Measurements: article PMC9228535, “Antistaphylococcal Activities and ADME-Related Properties of Chlorinated Arylcarbamoylnaphthalenylcarbamates” (Pharmaceuticals, 2022)
Values after ≈ are worked out from the molar mass of the structure shown. Where two headings read alike, the source gives them in different places.

Columns and labels:
[1] = Lipophilicity determination by RP-HPLC (log k, log D); type: physicochemical; details: for log D6.5 / log D7.4 / log k: RP-HPLC; for log D6.5: MeOH 72%/acetate buffered saline pH 6.5; for log D7.4: MeOH 72%/acetate buffered saline pH 7.4; for log k: MeOH 72%/water 28%
Description: Lipophilicity was measured by reversed-phase high performance liquid chromatography (RP-HPLC) under isocratic conditions with methanol as the organic modifier in the aqueous mobile phase and the logarithm of the capacity factor k was calculated, which is used as the lipophilicity index converted to the log P scale. In addition to the log k values, the logarithm of the distribution coefficient DpH at pH 6.5 and 7.4 was determined to clarify the behavior of the compounds under physiological conditions and possible ionization. Instead of water, a buffer of suitable pH was used as part of the mobile phase. In addition to the above-mentioned experimental methods, commercially available ChemBioDraw Ultra 13.0 and ACD/Percepta ver. […] In addition to lipophilicity, other parameters discussed in Ro5, such as molecular weight, number of H-bond donors/acceptors, as well as parameters not reported in Ro5, but characterizing the physicochemical properties of the prepared molecules, such as number of rotatable bonds, were predicted using ACD/Percepta. Moreover, for each R substituent, bulkiness expressed as molar volume (MV [cm^3]), a parameter describing the tail length/branching of each carbamates, was calculated.
A HPLC separation module Agilent 1200 Series (Agilent Technologies, Santa Clara, CA, USA) equipped with a Dual Absorbance Detector (DAD SL G1315C, Agilent Technologies) was used. A chromatographic column Symmetry® C18 5 μm, 4.6 × 250 mm, Part No. W21751W016 (Waters Corp, Milford, MA, USA) was used. The HPLC separation process was monitored by ChemStation for LC 3D systems (Agilent Technologies). […] The total flow of the column was 1.0 mL/min, injection 20 μL, column temperature 40 °C, and sample temperature 10 °C. The detection wavelength of 210 nm was chosen. A KI methanolic solution was used for the determination of the dead times (tD). Retention times (tR) were measured in minutes. The capacity factors k were calculated according to the formula k = (tR − tD)/tD, where tR is the retention time of the solute, and tD is the dead time obtained using an unretained analyte. The distribution coefficients DpH were calculated according to the formula DpH = (tR − tD)/tD. Each experiment was repeated three times.

MRSA SA 630 [2] = assay: MBC, agar aliquot subculture method; type: cell-based; details: Staphylococcus aureus
Description: (§1) All the investigated compounds were screened for in vitro antibacterial activity against the reference and quality control strain Staphylococcus aureus ATCC 29213 and clinical isolates of methicillin-resistant S. aureus (MRSA) 63718, SA 630, and SA 3202 [14]. Activities are expressed as the minimum inhibitory concentrations (MICs), see Table 2. In addition to the MICs, the minimum bactericidal concentrations (MBCs) were also determined.
(§2) For the S. aureus and MRSA isolates, the agar aliquot subculture method was used as a test for bactericidal agents. After the MIC value determination, the inoculum was transferred to Mueller–Hinton (Oxoid) agar using a multipoint inoculator. The plates were incubated in a thermostat at 37 °C for 24 h. The lowest concentration of test compound at which ≤5 colonies were obtained was then evaluated as MBC, corresponding to a 99.9% decrease in CFU relative to the original inoculum.

[3] = tested on: Staphylococcus aureus ATCC 29213; assay: MBC, agar aliquot subculture method; type: cell-based; details: ATCC29213, SA = S. aureus ATCC 29213, read-out: MBC
Description: as §1, §2

MRSA 63718 [4] = assay: MBC, agar aliquot subculture method; type: cell-based; details: Staphylococcus aureus, MRSA
Description: as §1, §2

MRSA SA 3202 [5] = assay: MBC, agar aliquot subculture method; type: cell-based; details: Staphylococcus aureus
Description: as §1, §2

THP-1 cells = assay: In vitro cytotoxicity assay (WST-1); type: cell-based; details: Homo sapiens; THP-1, 24 h, ± SD, n = 6; read-out: IC50
Description: Preliminary in vitro cytotoxicity screening of the investigated compounds was performed using human monocytic leukemia THP-1 cells, see Table 2. The ability to inhibit the human cancer cell viability (IC50) of the compounds was compared to camptothecin toxicity (0.16 ± 0.07 μM). […] However, these values are up to two orders of magnitude higher than their significant antistaphyloccocal concentrations. This fact is also taken into account in the calculated selectivity index (SI), Table 2, where for only three compounds the SI is <20, while for the rest of the agents SI is >20, and for some derivatives even 100 and more. Thus, based on all these observations, it can be concluded that all the tested derivatives can be considered as in vitro non-toxic compounds for the subsequent design of new therapeutic agents.
The human THP-1 cell line (European Collection of Cell Cultures, Salisbury, UK) was cultured in RPMI 1640 medium supplemented with 10% fetal bovine serum, 2% L-glutamine, 1% penicillin, and streptomycin at 37 °C with 5% CO2. Cells were passaged at approximately 1-week intervals. All the tested compounds were prepared and dissolved as mentioned in our previous work.

[6] = tested on: Enterococcus faecalis ATCC 29212; assay: MIC, microtitration broth method; type: cell-based; details: for MIC: ATCC29212, EF = Enterococcus faecalis, 24 h, read-out: MIC
Description: (§3) In vitro antibacterial activity of the synthesized compounds was evaluated against representatives of multidrug-resistant bacteria, three clinical isolates of methicillin-resistant S. aureus: clinical isolate of animal origin, MRSA 63718 (Department of Infectious Diseases and Microbiology, Faculty of Veterinary Medicine, University of Veterinary Sciences Brno, Czech Republic), carrying the mecA gene; and MRSA SA 630 [46] and MRSA SA 3202 [46] (National Institute of Public Health, Prague, Czech Republic), both of human origin. Suspected colonies were confirmed by PCR; a 108bp fragment specific for S. aureus was detected. All isolates were tested for the presence of the mecA gene encoding methicillin resistance. […] Vancomycin-susceptible methicillin-susceptible S. aureus (VS-MSSA) ATCC 29213, obtained from the American Type Culture Collection, was used as the reference and quality control strain. Enterococcus faecalis ATCC 29212 was obtained from the American Type Culture Collection and used as the reference and quality control strain.
(§4) The minimum inhibitory concentrations (MICs) were evaluated by the microtitration broth method according to the CLSI [64, 65] with some modifications. The compounds were dissolved in DMSO (Sigma, St. Louis, MO, USA) to get a concentration […] and diluted in a microtitration plate in an appropriate medium, namely, Cation Adjusted Mueller–Hinton (CaMH, Oxoid, Basingstoke, UK) for staphylococci (S. aureus ATCC 29213, clinical isolates of MRSA 63718, SA 630, and SA 3202) and brain heart infusion (BHI, Oxoid) for E. faecalis ATCC 29212, to reach the final concentration of 256-0.125 µg/mL. The plate was inoculated by the tested microorganisms. The final concentration of bacterial cells was 10^5 for bacteria. Ampicillin (Sigma) was used as reference drugs. A drug-free control and a sterility control were included. The plates were incubated for 24 h at 37 °C for staphylococci and E. faecalis ATCC 29212 (stability evaluation of the carbamates, see Supplementary materials, Table S1). […] The experiments were repeated three times.

MRSA SA 630 [7] = assay: MIC, microtitration broth method; type: cell-based; details: Staphylococcus aureus, 24 h
Description: as §1, §3, §4

[8] = tested on: Staphylococcus aureus ATCC 29213; assay: MIC, microtitration broth method; type: cell-based; details: ATCC29213, SA = S. aureus ATCC 29213, 24 h, read-out: MIC
Description: as §1, §3, §4

MRSA 63718 [9] = assay: MIC, microtitration broth method; type: cell-based; details: Staphylococcus aureus, MRSA, 24 h
Description: as §1, §3, §4

MRSA SA 3202 [10] = assay: MIC, microtitration broth method; type: cell-based; details: Staphylococcus aureus, 24 h
Description: as §1, §3, §4

Row | SMILES | log D6.5 [1] | log D7.4 [1] | log k [1] | MBC (MRSA SA 630 [2]) [µM] | MBC [3] [µM] | MBC (MRSA 63718 [4]) [µM] | MBC (MRSA SA 3202 [5]) [µM] | IC50 (THP-1 cells) [µM] | MIC [6] [µM] | MIC (MRSA SA 630 [7]) [µM] | MIC [8] [µM] | MIC (MRSA 63718 [9]) [µM] | MIC (MRSA SA 3202 [10]) [µM] | lipophilicity (experimental log k/log D, approximate) [1] | lipophilicity (experimental log k/log D, approximate) ([1]; listed as 15) | anti-enterococcal activity (in words) ([6]; E. faecalis ATCC 29212)
1 | CC(C)NC(=O)Oc1c(C(=O)Nc2cc(Cl)c(Cl)cc2Cl)ccc2ccccc12 [Compound 9, 2-[N-(2,4,5-Trichlorophenyl)carbamoyl]naphthalen-1-yl isopropyl carbamate] | 0.9579 | 1.0468 | 0.9526 | 0.277 (≈ 0.125 µg/mL) | 0.018 (≈ 0.00813 µg/mL) | 0.139 (≈ 0.0628 µg/mL) | 0.277 (≈ 0.125 µg/mL) | 3.26 ± 0.08 | 142 (≈ 64.1 µg/mL) | 0.035 (≈ 0.0158 µg/mL) | 0.018 (≈ 0.00813 µg/mL) | 0.139 (≈ 0.0628 µg/mL) | 0.277 (≈ 0.125 µg/mL) | – | – | –
2 | CCCCCCNC(=O)Oc1c(C(=O)Nc2cc(Cl)c(Cl)cc2Cl)ccc2ccccc12 [Compound 6, 2-[N-(2,4,5-Trichlorophenyl)carbamoyl]naphthalen-1-yl hexyl carbamate] | 1.4899 | 1.4990 | 1.4883 | 0.506 (≈ 0.25 µg/mL) | 0.128 (≈ 0.0632 µg/mL) | 0.253 (≈ 0.125 µg/mL) | 0.253 (≈ 0.125 µg/mL) | 3.2 ± 0.19 | 259 (≈ 128 µg/mL) | 0.253 (≈ 0.125 µg/mL) | 0.128 (≈ 0.0632 µg/mL) | 0.253 (≈ 0.125 µg/mL) | 0.253 (≈ 0.125 µg/mL) | – | – | –
3 | CCCCCNC(=O)Oc1c(C(=O)Nc2cc(Cl)c(Cl)cc2Cl)ccc2ccccc12 [Compound 5, 2-[N-(2,4,5-Trichlorophenyl)carbamoyl]naphthalen-1-yl pentyl carbamate] | 1.3072 | 1.3168 | 1.3051 | 0.521 (≈ 0.25 µg/mL) | 0.067 (≈ 0.0321 µg/mL) | 0.261 (≈ 0.125 µg/mL) | 0.131 (≈ 0.0629 µg/mL) | 3.44 ± 0.04 | 267 (≈ 128 µg/mL) | 0.261 (≈ 0.125 µg/mL) | 0.067 (≈ 0.0321 µg/mL) | 0.261 (≈ 0.125 µg/mL) | 0.131 (≈ 0.0629 µg/mL) | – | – | –
4 | O=C(NC1CCCCCC1)Oc1c(C(=O)Nc2cc(Cl)c(Cl)cc2Cl)ccc2ccccc12 [Compound 12, 2-[N-(2,4,5-Trichlorophenyl)carbamoyl]naphthalen-1-yl cycloheptyl carbamate] | 1.4492 | 1.4527 | 1.4469 | 0.494 (≈ 0.25 µg/mL) | 0.494 (≈ 0.25 µg/mL) | 0.247 (≈ 0.125 µg/mL) | 0.494 (≈ 0.25 µg/mL) | 3.24 ± 0.12 | 127 (≈ 64.2 µg/mL) | 0.494 (≈ 0.25 µg/mL) | 0.494 (≈ 0.25 µg/mL) | 0.247 (≈ 0.125 µg/mL) | 0.494 (≈ 0.25 µg/mL) | ca. 1.45 | – | –
5 | O=C(NCCCCc1ccccc1)Oc1c(C(=O)Nc2cc(Cl)c(Cl)cc2Cl)ccc2ccccc12 [Compound 14, 2-[N-(2,4,5-Trichlorophenyl)carbamoyl]naphthalen-1-yl 4-phenylbutyl carbamate] | 1.5193 | 1.5191 | 1.5167 | 0.461 (≈ 0.25 µg/mL) | 0.116 (≈ 0.0629 µg/mL) | 0.231 (≈ 0.125 µg/mL) | 0.461 (≈ 0.25 µg/mL) | 2.73 ± 0.37 | 118 (≈ 63.9 µg/mL) | 0.116 (≈ 0.0629 µg/mL) | 0.116 (≈ 0.0629 µg/mL) | 0.231 (≈ 0.125 µg/mL) | 0.231 (≈ 0.125 µg/mL) | ca. 1.25 | ca. 1.52 | –
6 | O=C(NC1CCCCC1)Oc1c(C(=O)Nc2cc(Cl)c(Cl)cc2Cl)ccc2ccccc12 [Compound 11, 2-[N-(2,4,5-Trichlorophenyl)carbamoyl]naphthalen-1-yl cyclohexyl carbamate] | 1.2952 | 1.2955 | 1.2911 | 1.02 (≈ 0.5 µg/mL) | 0.508 (≈ 0.25 µg/mL) | 0.508 (≈ 0.25 µg/mL) | 0.508 (≈ 0.25 µg/mL) | 2.76 ± 0.24 | 65.1 (≈ 32 µg/mL) | 0.508 (≈ 0.25 µg/mL) | 0.128 (≈ 0.063 µg/mL) | 0.254 (≈ 0.125 µg/mL) | 0.508 (≈ 0.25 µg/mL) | – | – | moderate activity
